Consider six molecules from patent US7247709B2, “Mitogenic oxygenases” (Emory University, priority 1998, dated 2007).

One assay addresses T1, human mox1 (Homo sapiens, UniProt Q9Y5S8, I173V).
T1 construct: expressed in transfected cells
T1 sequence (Q9Y5S8 1-564 I173V): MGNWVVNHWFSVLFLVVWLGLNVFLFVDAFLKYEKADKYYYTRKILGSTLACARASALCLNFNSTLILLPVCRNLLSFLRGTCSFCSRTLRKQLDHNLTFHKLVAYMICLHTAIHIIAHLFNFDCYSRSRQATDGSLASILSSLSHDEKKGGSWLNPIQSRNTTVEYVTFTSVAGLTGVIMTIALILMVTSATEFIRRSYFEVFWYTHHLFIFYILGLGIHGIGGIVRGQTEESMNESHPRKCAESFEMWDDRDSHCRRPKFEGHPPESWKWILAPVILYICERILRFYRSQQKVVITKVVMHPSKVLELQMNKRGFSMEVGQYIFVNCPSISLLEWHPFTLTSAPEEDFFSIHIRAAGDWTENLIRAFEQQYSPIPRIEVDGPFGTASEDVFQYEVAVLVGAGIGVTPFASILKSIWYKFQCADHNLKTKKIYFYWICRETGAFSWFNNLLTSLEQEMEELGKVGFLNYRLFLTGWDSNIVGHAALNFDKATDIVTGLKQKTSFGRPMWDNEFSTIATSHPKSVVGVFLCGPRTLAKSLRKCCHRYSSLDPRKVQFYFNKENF
T1 sequence (Q61462 1-192 partner): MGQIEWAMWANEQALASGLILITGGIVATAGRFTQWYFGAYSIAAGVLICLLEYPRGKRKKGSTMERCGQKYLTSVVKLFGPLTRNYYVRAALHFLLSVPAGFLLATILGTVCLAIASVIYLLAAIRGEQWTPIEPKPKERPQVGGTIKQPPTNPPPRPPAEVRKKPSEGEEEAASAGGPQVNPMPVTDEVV
The assay is described as follows: NADPH-dependent superoxide generation, lucigenin luminescence assay in lysates of mox1-transfected NIH 3T3 cells. It is filed as biochemical. As to conditions: lysates of stably mox1-transfected NIH 3T3 cell lines. As for the experimental part: In one embodiment of the present invention, NIH 3T3 cells stably transfected with the human mox1 gene (SEQ ID NO:1) were analyzed for superoxide generation using the lucigenin (Bis-N-methylacridinium luminescence assay (Sigma, St. Louis, Mo., Li et al. (1998) J. Biol. Chem. 273, 2015-2023). Cells were washed with cold HANKS' solution and homogenized on ice in HANKS' buffer containing 15% sucrose using a Dounce homogenizer. Cell lysates were frozen immediately in a dry ice/ethanol bath. For the assay, 30 μg of cell lysate was mixed with 200 μM NADPH and 500 μM lucigenin. Luminescence was monitored using a LumiCounter (Packard) at three successive one minute intervals and the highest value was used for comparison. Protein concentration was determined by the Bradford method.
Superoxide generation was monitored in lysates from some of the stably transfected cell lines and was compared with superoxide generation by the untransfected NIH 3T3 cell lysates. Cell lines 26, 27, and 28 gave the highest degree of morphological changes by microscopic examination corresponding to the highest degree of superoxide generation. The luminescent signal was inhibited by superoxide dismutase and the general flavoprotein inhibitor diphenylene iodonium, but was unaffected by added recombinant human p47phox, p67phox and Rac1 (GTP-γS), which are essential cytosolic factors for the phagocyte respiratory-burst oxidase.

The subject of assay [1] is superoxide-generating NADPH oxidase activity. In words: Superoxide generation in lysates of Ras-transformed fibroblasts, lucigenin luminescence assay. It is filed as biochemical. As to conditions: for RLU/5 μg protein, plus DPI: 1 μM DPI; for inhibition of luminescence / activity: lysates of Table 6; for RLU/5 μg protein, plus SOD: 100 U SOD. The protocol:
Lysates from each of these lines were then prepared and tested for their ability to generate superoxide. For each cell line, cells were washed with cold HANKS' balanced salt solution (HBSS), collected by centrifugation, kept on dry-ice for more than 30 min, and disrupted by suspending in low salt buffer (LSB; 50 mM Tris/HCl, pH 7.5, 1 mM PMSF, and protease cocktail from Sigma) and passing through a syringe needle (18 gauge) ten times. Cell lysates were frozen in dry-ice immediately after determining the protein concentration. […] Luminescence of the reaction mixture was monitored for 0.5 second by LumiCounter (Packard) for four times at 3 second intervals. RLU in Table 5 refers to relative luminescence units.

A further assay relates to r-p65mox mRNA. In words: Expression of r-p65mox mRNA in rat aortic smooth muscle cells (Northern blot). The assay is classed as cell-based. The protocol: Human multiple tissue northern (MTN) Blot I and Human MTN Blot IV (ClonTech) membranes were hybridized with the putative coding region of the PCR-mox vector at 68° C. for several hours. The mox coding region was labeled by random priming with [α-^32P]dCTP (10 μCi) using the Prime-It II kit (Stratagene). For analysis of mox1 expression in cell lines, total RNA was prepared from 10^6 cells using the High Pure RNA Isolation Kit (Boehringer Mannheim) or RNeasy kit (Quiagen). Total RNA (10-20 μg) was separated on a 1% agarose formaldehyde mini-gel and transferred to a Nytran filter (Biorad) and immobilized by ultraviolet cross-linking.
Using the partial cDNA clone from rat, we have examined cultured rat aortic smooth muscle cells for expression of message for r-p65mox. We have observed the mRNA for r-p65mox in these cells. It has been previously reported (Griendling et al. (1994) Circ. Res. 74, 1141-1148; Fukui et al. (1997) Circ. Res. 80, 45-51; Ushio-Fukai et al. (1996) J. Biol. Chem. 271, 23317-23321) that in vitro or in vivo treatment with angiotensin II (AII) is a growth stimulus for vascular smooth muscle cells, and that AII induces increased superoxide generation in these cells. Platelet-derived growth factor (PDGF) and PMA are proliferative signals for vascular smooth muscle cells. We observed that the mRNA for r-p65mox was induced approximately 2-3 fold by angiotensin II (100 nM), corresponding to the increased level of superoxide generation. Thus, the increased superoxide generation in these cells correlates with increased expression of the mRNA for this enzyme. […] 28S RNA was used as a control for RNA recovery.

Assay [2] concerns NIH 3T3 cells transfected with the mox1 cDNA (SEQ ID NO:1). The assay is described as follows: Nitro blue tetrazolium reduction by superoxide generated by intact NIH 3T3 cells transfected with mox1 cDNA. The assay is classed as cell-based. To be noted: 600 units superoxide dismutase. The protocol: Superoxide generation by intact cells was monitored by using superoxide dismutase-sensitive reduction of nitroblue tetrazolium. NEF2 (vector alone control), YA26 (mox1 (SEQ ID NO:1)-transfected) and YA28 (mox1 (SEQ ID NO:1)-transfected) cells were plated in six well plates at 500,000 cells per well. About 24 hours later, medium was removed from cells and the cells were washed once with 1 mL Hanks solution (Sigma, St. Louis, Mo.). About 1 mL of filtered 0.25% Nitro blue tetrazolium (NBT, Sigma) was added in Hanks without or with 600 units of superoxide dismutase (Sigma) and cells were incubated at 37° C. in the presence of 5% CO2. After 8 minutes the cells were scraped and pelleted at more than 10,000 g. The pellet was re-suspended in 1 mL of pyridine (Sigma) and heated for 10 minutes at 100° C. to solubilize the reduced NBT. The concentration of reduced NBT was determined by measuring the absorbance at 510 nm, using an extinction coefficient of 11,000 M^−1cm^−1. Some wells were untreated and used to determine cell number.

Turning to `c1ccc2c(c1)[I+]c1ccccc1-2` [DPI, diphenyleneiodonium], the “effect of added agent on the luminescent signal” value (from here on “effect of added agent”) on human mox1 is “inhibited”. For the same molecule, the “RLU/5 μg protein, plus DPI” value is on record as 36 RLU/5 μg protein in assay [1] (V12-Ras-4 lysate), 39 RLU/5 μg protein in assay [1] (V12-Ras-7 lysate), 35 RLU/5 μg protein in assay [1] (V12-Ras-8 lysate) and 48 RLU/5 μg protein in assay [1] (Vector Control lysate). For the same molecule, the “inhibition of luminescence / activity” value in assay [1] is recorded as “completely inhibited”.

On to PDGF, for which the “induction of rat mox1 message, quantitation by densitometry” value with r-p65mox mRNA (6 and 12 hour time points) is recorded as about 4 fold. Also, the “increase of mRNA for r-p65mox” value in the assay on r-p65mox mRNA (PDGF 20 ng/ml) is given as at least 2 fold. Moreover, the “Northern hybridization of mox1 mRNA from rat aortic smooth muscle cells” value with r-p65mox mRNA (within 12 hours after treatment) was “increased roughly two-fold”.

On to “angiotensin II (DRVYIHPF; Angiotensin-2; UniProt P01019 25-32, looked up) [growth stimulus for vascular smooth muscle cells]”, for which, in the assay on r-p65mox mRNA (12 hour time point), the “induction of rat mox1 message, quantitation by densitometry” value is listed as “approximately 2 fold”.

With superoxide dismutase, the “effect of added agent” value at human mox1 was “inhibited”. In addition, the “NBT Reduction, +SOD” value stood at 3.4 ± 0.1 nmols/10^6 cells in assay [2] (YA26 (mox1) cells), 3.4 ± 0.3 nmols/10^6 cells in assay [2] (YA28 (mox1) cells) and 2.1 ± 0.5 nmols/10^6 cells in assay [2] (vector control cells). Moreover, the “RLU/5 μg protein, plus SOD” value is reported as 2128 RLU/5 μg protein in assay [1] (V12-Ras-4 lysate), 578 RLU/5 μg protein in assay [1] (V12-Ras-7 lysate), 2000 RLU/5 μg protein in assay [1] (V12-Ras-8 lysate) and 154 RLU/5 μg protein in assay [1] (Vector Control lysate). The “inhibition of luminescence / activity” value in assay [1] is listed as “partially inhibited”.

B1: p47phox: recombinant human p47phox, essential cytosolic factor for the phagocyte respiratory-burst oxidase (protein, UniProt P14598 1-390, looked up)
Neutrophil cytosol factor 1: MGDTFIRHIALLGFEKRFVPSQHYVYMFLVKWQDLSEKVVYRRFTEIYEFHKTLKEMFPIEAGAINPENRIIPHLPAPKWFDGQRAAENRQGTLTEYCSTLMSLPTKISRCPHLLDFFKVRPDDLKLPTDNQTKKPETYLMPKDGKSTATDITGPIILQTYRAIANYEKTSGSEMALSTGDVVEVVEKSESGWWFCQMKAKRGWIPASFLEPLDSPDETEDPEPNYAGEPYVAIKAYTAVEGDEVSLLEGEAVEVIHKLLDGWWVIRKDDVTGYFPSMYLQKSGQDVSQAQRQIKRGAPPRRSSIRNAHSIHQRSRKRLSQDAYRRNSVRFLQQRRRQARPGPQSPGSPLEEERQTQRSKPQPAVPPRPSADLILNRCSESTKRKLASAV
For the molecule B1, the “effect of added agent” value in the assay with human mox1 was “unaffected”.

B2: p67phox: recombinant human p67phox, essential cytosolic factor for the phagocyte respiratory-burst oxidase (protein, UniProt P19878 1-526, looked up)
Neutrophil cytosol factor 2: MSLVEAISLWNEGVLAADKKDWKGALDAFSAVQDPHSRICFNIGCMYTILKNMTEAEKAFTRSINRDKHLAVAYFQRGMLYYQTEKYDLAIKDLKEALIQLRGNQLIDYKILGLQFKLFACEVLYNIAFMYAKKEEWKKAEEQLALATSMKSEPRHSKIDKAMECVWKQKLYEPVVIPVGKLFRPNERQVAQLAKKDYLGKATVVASVVDQDSFSGFAPLQPQAAEPPPRPKTPEIFRALEGEAHRVLFGFVPETKEELQVMPGNIVFVLKKGNDNWATVMFNGQKGLVPCNYLEPVELRIHPQQQPQEESSPQSDIPAPPSSKAPGRPQLSPGQKQKEEPKEVKLSVPMPYTLKVHYKYTVVMKTQPGLPYSQVRDMVSKKLELRLEHTKLSYRPRDSNELVPLSEDSMKDAWGQVKNYCLTLWCENTVGDQGFPDEPKESEKADANNQTTEPQLKKGSQVEALFSYEATQPEDLEFQEGDIILVLSKVNEEWLEGECKGKVGIFPKVFVEDCATTDLESTRREV
In the case of B2, the “effect of added agent” value in the assay with human mox1 is given as “unaffected”.
